Source: US11084795B2, “CFTR regulators and methods of use thereof” (The Regents of the University of California, priority 2015, dated 2021)
“Also recorded” adds a separate entry of the source.

Legend:
[1] = system: enteroids generated from normal human duodenum and jejunum; assay: Swelling measurements in human enteroids; type: cell-based; details: pretreatment 10 min, with 0.1 or 0.2 μM forskolin
Procedure: Tissues from human subjects were obtained under approval of the Johns Hopkins University School of Medicine Institutional Review Board (protocol NA_00038329). Duodenal and jejunal biopsy specimens were obtained from adults during routine endoscopy at Johns Hopkins Hospital. Crypt isolation, enteroid propagation and culture were as described (16). For swelling measurements enteroids were seeded in 35-mm dishes with bottom coverglass with 1.5 mL media. On the day of the experiment the media was replaced with 3 mL Advanced DMEM/F12 and enteroids were incubated with 1 mM calcein greenacetoxymethyl ester for 1 h at 37° C. to label cytoplasm. Relative enteroid volume following addition of specified concentrations of forskolin was measured using a laser scanning confocal microscope (Fluoview FV10i-LIV; Olympus) at 37° C., 5% CO2, and 95% relative humidity. In some studies CFTRact-J027 was added 10 min prior to forskolin. Images were acquired every 10 min and analyzed with MetaMorph version 7.7 software (Olympus) to quantify enteroid areas.

cellular cAMP = assay: GloSensor cAMP assay in FRT cells; type: cell-based, rat; details: 5 μM compound, 10 min, without or with 100 nM forskolin
Procedure: Intracellular cAMP activity was measured using a GloSensor luminescence assay (Promega Corp., Madison, Wisconson, USA). FRT null cells were stably transfected with the pGloSensor cAMP plasmid and plated onto white 96-well microplates and grown to confluence. Cells were washed three times with PBS and incubated with 5 μM CFTRact-J027 for 10 min in the absence and presence of 100 nM forskolin. cAMP was assayed according to the manufacturer's instructions.
Intracellular cAMP activity was measured using a GloSensor luminescence assay (Promega Corp., Madison, Wis., USA). FRT cells stably transfected with the pGloSensor cAMP plasmid (Promega Corp.) were cultured in white 96-well microplates (Corning Costar) overnight. Cells were then washed three times with PBS and incubated with 5 μM test compound for 10 min in the absence and presence of 100 nM forskolin.
cAMP assay. Intracellular cAMP activity was measured using a GloSensor luminescence assay (Promega Corp., Madison, Wisconson, USA). FRT null cells were stably transfected with the pGloSensor cAMP plasmid and plated onto white 96-well microplates and grown to confluence. […]
cAMP and cytotoxicity assays. Intracellular cAMP activity was measured using a GloSensor luminescence assay (Promega Corp., Madison, Wis., USA). […]

human wildtype CFTR = human wildtype CFTR (Homo sapiens, UniProt P13569); assay: Fluorescence plate reader assay of iodide influx in FRT cells co-expressing CFTR and YFP halide sensor; details: synthesized compounds, full dose-response study; 125 nM forskolin
Chain of human wildtype CFTR (P13569 whole entry): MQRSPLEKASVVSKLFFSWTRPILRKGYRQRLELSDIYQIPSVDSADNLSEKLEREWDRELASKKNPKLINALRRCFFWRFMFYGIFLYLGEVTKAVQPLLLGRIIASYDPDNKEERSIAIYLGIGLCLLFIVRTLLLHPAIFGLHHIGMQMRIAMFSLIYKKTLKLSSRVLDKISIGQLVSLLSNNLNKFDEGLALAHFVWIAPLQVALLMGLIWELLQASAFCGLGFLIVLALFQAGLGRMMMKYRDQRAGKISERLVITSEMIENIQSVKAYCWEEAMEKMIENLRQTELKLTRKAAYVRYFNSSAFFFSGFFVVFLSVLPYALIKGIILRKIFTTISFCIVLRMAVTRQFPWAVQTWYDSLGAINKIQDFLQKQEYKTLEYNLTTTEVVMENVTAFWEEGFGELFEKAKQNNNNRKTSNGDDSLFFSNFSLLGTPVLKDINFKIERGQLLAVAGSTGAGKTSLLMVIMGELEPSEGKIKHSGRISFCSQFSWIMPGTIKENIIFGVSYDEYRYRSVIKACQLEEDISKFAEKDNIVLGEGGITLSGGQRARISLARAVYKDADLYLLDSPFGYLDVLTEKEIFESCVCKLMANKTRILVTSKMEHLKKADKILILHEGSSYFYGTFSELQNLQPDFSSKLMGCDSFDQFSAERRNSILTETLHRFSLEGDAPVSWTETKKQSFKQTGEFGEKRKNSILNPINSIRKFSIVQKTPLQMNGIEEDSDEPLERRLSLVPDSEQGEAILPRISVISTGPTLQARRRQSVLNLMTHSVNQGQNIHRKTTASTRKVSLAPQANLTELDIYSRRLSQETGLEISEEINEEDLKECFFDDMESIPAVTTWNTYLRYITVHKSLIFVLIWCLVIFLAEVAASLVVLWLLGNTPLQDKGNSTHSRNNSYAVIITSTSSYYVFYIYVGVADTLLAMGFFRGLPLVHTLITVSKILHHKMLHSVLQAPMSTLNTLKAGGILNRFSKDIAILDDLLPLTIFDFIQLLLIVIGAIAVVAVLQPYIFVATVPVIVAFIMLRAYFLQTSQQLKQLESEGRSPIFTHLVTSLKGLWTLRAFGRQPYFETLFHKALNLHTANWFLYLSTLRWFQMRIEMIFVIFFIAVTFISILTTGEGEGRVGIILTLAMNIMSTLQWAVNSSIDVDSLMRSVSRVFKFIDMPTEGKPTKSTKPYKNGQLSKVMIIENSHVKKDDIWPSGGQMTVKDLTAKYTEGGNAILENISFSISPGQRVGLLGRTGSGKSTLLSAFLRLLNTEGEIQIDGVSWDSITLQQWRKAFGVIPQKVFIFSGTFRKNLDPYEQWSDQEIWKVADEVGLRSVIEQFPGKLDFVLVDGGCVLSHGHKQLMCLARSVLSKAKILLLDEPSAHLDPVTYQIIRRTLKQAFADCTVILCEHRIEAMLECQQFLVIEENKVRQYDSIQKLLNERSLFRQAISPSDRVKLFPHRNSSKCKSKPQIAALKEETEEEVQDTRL

tear fluid secretion = type: in vivo, mouse; details: wild-type mice; B074 100 μM, J027 and K089 50 μM, VX-770 10 μM, cholera toxin 0.1 μg/mL, forskolin 20 μM, IBMX 250 μM
scopolamine-treated mice = assay: Scopolamine-induced mouse model of acute constipation; type: in vivo
Procedure: Control mice were treated with vehicle only.

[2] = Compound accumulation in systemic tissues after 14 days topical dosing; type: in vivo, mouse; details: two weeks of three times per day topical dosing
whole-gut transit = assay: Whole-gut transit time in mice; type: in vivo, mouse
Procedure: Whole-gut transit time was determined using an orally administered marker (200 μL, 5% Evans Blue, 5% gum Arabic) and measuring the time of its appearance in stool. Mice were administered loperamide and CFTRact-J027 (10 mg/kg) or vehicle intraperitoneally at zero time. For ex vivo contractility measurements, mice were euthanized by avertin overdose (200 mg/kg, 2,2,2-tribromethanol, Sigma-Aldrich) and ileum and colon segments of ˜2 cm length were isolated and washed with Krebs-Henseleit buffer. The ends of the intestinal segments were tied, connected to a force transducer (Biopac Systems, Goleta, Calif., USA) and tissues were transferred to an organ chamber (Biopac Systems) containing Krebs-Henseleit buffer at 37° C. aerated with 95% O2, 5% CO2. Ileum and colon were stabilized for 60 min with resting tensions of 0.5 and 0.2 g respectively, and solutions were changed every 15 min. Effects of CFTRact-J027 on baseline and loperamide-suppressed isometric intestinal contractions were recorded.
In vivo intestinal transit and ex vivo intestinal contractility. Whole-gut transit time was determined using an orally administered marker (200 μL, 5% Evans Blue, 5% gum Arabic) and measuring the time of its appearance in stool. […] Effects of CFTRact-J027 on baseline and loperamide-suppressed isometric intestinal contractions were recorded.

[3] = Stability in simulated gastric fluid (pH 2); type: physicochemical; details: 10 μM, pH 2, 37° C., 3 h
Procedure: To study gastric acid stability CFTRact-J027 (10 μM) was dissolved in simulated gastric fluid (0.2 NaCl, 0.7% HCl, pH 2) and incubated for 3 h at 37° C. To study in vitro metabolic stability CFTRact-J027 (5 μM) was incubated for specified times at 37° C. with human liver microsomes (1 mg protein/ml; Sigma-Aldrich) in potassium phosphate buffer (100 mM) containing 1 mM NADPH. After specified incubation periods the mixtures were chilled on ice, and 0.5 ml of ice-cold ethyl acetate was added. Samples were centrifuged for 15 min at 3000 rpm, the supernatants evaporated to dryness, and the residues were dissolved in 100 μL mobile phase (acetonitrile:water, 3:1) and assayed by liquid chromatography mass spectrometry (LC/MS). The solvent system consisted of a linear gradient from 5 to 95% acetonitrile over 16 min (0.2 ml/min flow). Mass spectra were acquired on a mass spectrometer (Waters 2695 and Micromass ZQ, Milford, Mass.) using electrospray (+) ionization, mass ranging from 100 to 1500 Da, cone voltage 40 V.

Nc1ccc([N+](=O)[O-])cc1-c1nc2ccccc2n(Cc2ccccc2)c1=O [CFTRact-J027, 3-(2-amino-5-nitrophenyl)-1-benzylquinoxalin-2(1H)-one]
enteroid swelling response as % of that produced by maximal (5 μM) forskolin [1]: approximately 50% | effect on cellular cAMP (cellular cAMP): without causing elevation of cytoplasmic cAMP; also recorded: does not elevate cellular cAMP | EC50 (human wildtype CFTR): 200 nM | tear fluid secretion after single topical dose (tear fluid secretion): increased tear fluid secretion by approximately two-fold for at least four hours | efficacy, ip after development of constipation (scopolamine-treated mice; 10 mg/kg ip 1 h after loperamide or scopolamine): effective | stool parameters, oral 1 h prior to scopolamine (scopolamine-treated mice; 10 mg/kg po): normalization of stool parameters | efficacy, oral after development of constipation (scopolamine-treated mice; 10 mg/kg po 1 h after loperamide or scopolamine): not effective | stool output, pellet number and water content compared to lubiprostone and linaclotide (scopolamine-treated mice; J027 10 mg/kg vs 0.5 mg/kg comparators, oral): more effective in increasing stool output, pellet number and water content | amount in mouse blood, brain, liver and kidney (limit of detection) [2]: < 700 fmol | whole-gut transit time in cystic fibrosis mice (whole-gut transit; cystic fibrosis mice): no effect on whole-gut transit time | whole-gut transit time (whole-gut transit; loperamide-treated wild-type mice, 10 mg/kg ip): normalized | degradation in simulated gastric fluid [3]: no compound degradation
